The results in this text go back to ChEMBL document CHEMBL1129114, “Bioactive hydroxyethylene dipeptide isosteres with hydrophobic (P3-P1)-moieties. A novel strategy towards small non-peptide renin inhibitors” (Bioorg Med Chem Lett, 1996).

pIC50: −log10 of the molar value.

The target of the experiment is T1, Renin (Homo sapiens, UniProt P00797).
T1 sequence (P00797 whole entry): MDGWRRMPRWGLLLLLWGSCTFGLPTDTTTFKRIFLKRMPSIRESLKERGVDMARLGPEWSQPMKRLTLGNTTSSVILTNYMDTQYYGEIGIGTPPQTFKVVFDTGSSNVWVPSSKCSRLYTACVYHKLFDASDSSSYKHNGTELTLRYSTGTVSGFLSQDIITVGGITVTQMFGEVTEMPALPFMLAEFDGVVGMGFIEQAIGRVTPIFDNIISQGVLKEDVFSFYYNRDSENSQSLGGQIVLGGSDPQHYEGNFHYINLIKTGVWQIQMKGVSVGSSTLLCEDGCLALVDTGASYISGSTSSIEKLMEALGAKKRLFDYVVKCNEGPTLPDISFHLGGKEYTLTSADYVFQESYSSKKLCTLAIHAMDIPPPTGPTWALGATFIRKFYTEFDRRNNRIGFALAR
Put plainly: In vitro binding affinity was tested against purified human renin at pH 7.2.

On to `CCCCNC(=O)[C@H](C)C[C@H](O)[C@@H](N)CC(C)(C)CCc1cccc(CO)c1`, for which the pIC50 is 4.24.
The result for `CCCCNC(=O)[C@H](C)C[C@H](O)[C@@H](N)C[C@H]1CC[C@H](CCCC(C)(C)C)CC1` reads 5.37.
Under `CCCCNC(=O)[C@H](C)C[C@H](O)[C@@H](N)CC(C)(C)CCCc1cccc2ccccc12` stands 5.68; under `CCCCNC(=O)[C@H](C)C[C@H](O)[C@@H](N)CC1CCCCC1`, 4.52.
Under `CCCCNC(=O)[C@H](C)C[C@H](O)[C@@H](N)CC(C)(C)CCc1cccc2ccccc12` stands 6.15; under `CCCCNC(=O)[C@H](C)C[C@H](O)[C@@H](N)C[C@@H]1CCC[C@@H](CCCC(C)(C)C)C1`, 6.52; under `CCCCNC(=O)[C@H](C)C[C@H](O)[C@@H](N)C[C@@H]1CCC[C@H](CCCC(C)(C)C)C1`, 5.54.
`CCCCNC(=O)[C@H](C)C[C@H](O)[C@@H](N)CC(C)(C)CCCc1ccc2ccccc2c1` gave a negative-log IC50 (pIC50) of 5.43.
The result for `CCCCNC(=O)[C@H](C)C[C@H](O)[C@@H](N)CC(C)(C)CCc1ccc(CO)cc1` reads 4.10; that for `CCCCNC(=O)[C@H](C)C[C@H](O)[C@@H](N)CC(C)(C)CCc1ccc2ccccc2c1`, 5.52; that for `CCCCNC(=O)[C@H](C)C[C@H](O)[C@@H](N)CC(CC)(CC)CCc1cccc2ccccc12`, 5.57.
Compound `CCCCNC(=O)[C@H](C)C[C@H](O)[C@@H](N)CC(C)(C)CCc1ccc(CO)c2ccccc12` gave a pIC50 of 5.00.
The compound `CCCCNC(=O)[C@H](C)C[C@H](O)[C@@H](N)CC1CCCC(CCCC(C)(C)C)C1` (stereo partly specified) showed a negative logarithm of the IC50 (pIC50) of 6.10.
Compound `CCCCNC(=O)[C@H](C)C[C@H](O)[C@@H](N)Cc1cccc(CCCC(C)(C)C)c1` had a pIC50 of 4.89.
The result for `CCCCNC(=O)[C@H](C)C[C@H](O)[C@@H](N)Cc1ccc(OCc2ccccc2)cc1` reads 4.49; that for `CCCCNC(=O)[C@H](C)C[C@H](O)[C@@H](N)CC(C)C`, < 4.00.
